Test results from patent publication US20110305748A1 (priority 2010, published 2011).

System: influenza
Design: species or system mice
Conditions: mouse, in vivo

Substance: GLA
- Th1 T cell responses (antigen-specific IgG2a titers and IFNγ production): dramatic increase in antigen-specific IgG2a titers and IFNγ production
